The experiment concerns L1210 leukemia ip in BDF1 mice, survival T/C. As to the kind of experiment: NCI In Vivo Anticancer Drug Screen. Data for tumor model L1210 Leukemia (intraperitoneal) in B6D2F1 (BDF1) mice. The settings on record: endpoint: mean survival time, higher = longer survival. The method, boiled down:
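Tumor cells were implanted, animals were treated, and survival was followed. The result divides the treated measurement by the vehicle-control measurement.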

[1] abbreviates: dose: 100.0 mg/kg/injection, schedule: Q01DX009 (ip), vehicle: saline with Tween-80.
The mark [2] stands for this setting: dose: 200.0 mg/kg/injection, schedule: Q01DX009 (ip), vehicle: saline with Tween-80.
Setting [3] is: dose: 100.0 mg/kg/injection, schedule: Q04DX003 (ip), vehicle: Klucel (hydroxypropylcellulose) (HPC).
Setting [4] is: dose: 200.0 mg/kg/injection, schedule: Q04DX003 (ip), vehicle: Klucel (hydroxypropylcellulose) (HPC).
Setting [5] is: dose: 50.0 mg/kg/injection, schedule: Q01DX009 (ip), vehicle: saline with Tween-80.
Setting [6] is: dose: 100.0 mg/kg/injection, schedule: Q04DX003 (ip), vehicle: saline with Tween-80.
[7] abbreviates: dose: 200.0 mg/kg/injection, schedule: Q04DX003 (ip), vehicle: saline with Tween-80.
[8] abbreviates: dose: 400.0 mg/kg/injection, schedule: Q04DX003 (ip), vehicle: saline with Tween-80.

“And” between values parts separate entries of the source, which are not always exact repeats. Equal entries are not always repeated. Inconclusive results and toxic doses are left out.

On to `Cc1ccc(Cl)cc1NC(=O)N(C)C1CCCCC1`, for which the T/C was 101 % of control (dose: 100.0 mg/kg/injection, schedule: Q01DX001 (ip), vehicle: saline with Tween-80); 94 % of control and 120 % of control under setting [1]; 104 % of control and 106 % of control (dose: 100.0 mg/kg/injection, schedule: Q04DX002 (ip), vehicle: saline with Tween-80); 97 % of control (dose: 100.0 mg/kg/injection, schedule: Q04DX003 (ip), vehicle: saline); 106 % of control (dose: 200.0 mg/kg/injection, schedule: Q01DX001 (ip), vehicle: saline with Tween-80); 96 % of control and 113 % of control under setting [2]. Moreover, the T/C is, setting by setting: (dose: 200.0 mg/kg/injection, schedule: Q04DX002 (ip), vehicle: saline with Tween-80) 98 % of control and 109 % of control; (dose: 200.0 mg/kg/injection, schedule: Q04DX003 (ip), vehicle: saline) 111 % of control; (dose: 400.0 mg/kg/injection, schedule: Q01DX001 (ip), vehicle: saline with Tween-80) 98 % of control; (dose: 400.0 mg/kg/injection, schedule: Q01DX009 (ip), vehicle: saline with Tween-80) 100 % of control and 110 % of control; (dose: 400.0 mg/kg/injection, schedule: Q04DX002 (ip), vehicle: saline with Tween-80) 95 % of control and 112 % of control; (dose: 400.0 mg/kg/injection, schedule: Q04DX003 (ip), vehicle: saline) 90 % of control.
As to `O=C(O)C#Cc1ccccc1`, the T/C is 107 % of control (dose: 25.0 mg/kg/injection, schedule: Q04DX003 (ip), vehicle: Klucel (hydroxypropylcellulose) (HPC)); 98 % of control (dose: 50.0 mg/kg/injection, schedule: Q04DX003 (ip), vehicle: Klucel (hydroxypropylcellulose) (HPC)); 100 % of control (dose: 100.0 mg/kg/injection, schedule: Q01DX001 (ip), vehicle: saline); 96 % of control under setting [3].
Turning to `CCCCCCCCCCCCNC(=O)CC(O)(CC(=O)O)C(=O)O` (stereo not drawn), under setting [3], the T/C was 96 % of control.
Consider `COc1cc(C(=O)N2CCCCCCC2)cc(OC)c1OC`, for which the T/C under setting [3] is 98 % of control and the T/C under setting [4] is 102 % of control.
As for `CCCCCCCCCCCCNC=O`, the T/C (dose: 100.0 mg/kg/injection, schedule: Q01DX009 (ip), vehicle: saline) is 94 % of control.
As to `CC(NC1=NCCO1)c1cccc2ccccc12` (stereo not drawn), the T/C is, setting by setting: (dose: 25.0 mg/kg/injection, schedule: Q01DX009 (ip), vehicle: saline with Tween-80) 94 % of control; under setting [5], 94 % of control; under setting [6], 96 % of control; under setting [7], 94 % of control; under setting [8], 89 % of control.
Regarding `CC(=O)c1cccc(NC(=S)NC(=O)/C=C/c2ccccc2)c1`, the T/C is 92 % of control under setting [5], 94 % of control under setting [1], 100 % of control under setting [6] and 103 % of control under setting [7].
In the case of `CC(O)CSc1ccccc1` (stereo not drawn), the T/C under setting [1] is 95 % of control and the T/C under setting [2] is 88 % of control.
As for `CC(C)CNC(=O)Cc1ccc(N(CCCl)CCCl)cc1`, the T/C under setting [3] is 108 % of control; the T/C under setting [4] is 108 % of control; the T/C (dose: 400.0 mg/kg/injection, schedule: Q04DX003 (ip), vehicle: Klucel (hydroxypropylcellulose) (HPC)) is 112 % of control.
Regarding `O=C(Nc1cccc2ccccc12)Oc1cccc2cccnc12`, the T/C (dose: 50.0 mg/kg/injection, schedule: Q01DX001 (ip), vehicle: Klucel (hydroxypropylcellulose) (HPC)) is 96 % of control; the T/C (dose: 100.0 mg/kg/injection, schedule: Q01DX001 (ip), vehicle: Klucel (hydroxypropylcellulose) (HPC)) is 105 % of control; the T/C (dose: 200.0 mg/kg/injection, schedule: Q01DX001 (ip), vehicle: Klucel (hydroxypropylcellulose) (HPC)) is 105 % of control.
Regarding `CN(CCCCC(=O)NC(CCC(=O)O)C(=O)O)Cc1cnc2nc(N)nc(N)c2n1` (stereo not drawn), the T/C was 94 % of control (dose: 20.0 mg/kg/injection, schedule: Q01DX009 (ip), vehicle: saline); 112 % of control (dose: 40.0 mg/kg/injection, schedule: Q01DX009 (ip), vehicle: saline); 94 % of control (dose: 80.0 mg/kg/injection, schedule: Q01DX009 (ip), vehicle: saline).
On to `C/C=C/c1ccc(OC)cc1`, for which the T/C is 104 % of control (dose: 100.0 mg/kg/injection, schedule: Q04DX002 (ip), vehicle: saline); 104 % of control (dose: 200.0 mg/kg/injection, schedule: Q04DX002 (ip), vehicle: saline); 97 % of control (dose: 400.0 mg/kg/injection, schedule: Q04DX002 (ip), vehicle: saline).
Regarding `CC1(C(=O)O)NCCS1` (stereo not drawn), the T/C is 95 % of control (dose: 100.0 mg/kg/injection, schedule: Q01DX001 (ip), vehicle: carboxymethylcellulose (CMC)); 90 % of control (dose: 200.0 mg/kg/injection, schedule: Q01DX001 (ip), vehicle: carboxymethylcellulose (CMC)); 90 % of control (dose: 400.0 mg/kg/injection, schedule: Q01DX001 (ip), vehicle: carboxymethylcellulose (CMC)).
For `CC(C)(C)C1CCC(NC(=O)N(CCCl)N=O)CC1` (stereo not drawn), the T/C is, setting by setting: (dose: 16.0 mg/kg/injection, schedule: Q01DX001 (ip), vehicle: other) 116 % of control; (dose: 125.0 mg/kg/injection, schedule: Q01DX001 (ip), vehicle: other) 198 % of control; (dose: 177.0 mg/kg/injection, schedule: Q01DX001 (ip), vehicle: other) 264 % of control; (dose: 250.0 mg/kg/injection, schedule: Q01DX001 (ip), vehicle: other) 259 % of control and 283 % of control; (dose: 354.0 mg/kg/injection, schedule: Q01DX001 (ip), vehicle: other) 272 % of control; (dose: 375.0 mg/kg/injection, schedule: Q01DX001 (ip), vehicle: other) 275 % of control. The T/C was 200 % of control and 317 % of control (dose: 500.0 mg/kg/injection, schedule: Q01DX001 (ip), vehicle: other); 106 % of control (dose: 708.0 mg/kg/injection, schedule: Q01DX001 (ip), vehicle: other); 170 % of control and 252 % of control (dose: 750.0 mg/kg/injection, schedule: Q01DX001 (ip), vehicle: other); 86 % of control (dose: 1000.0 mg/kg/injection, schedule: Q01DX001 (ip), vehicle: other); 219 % of control (dose: 1250.0 mg/kg/injection, schedule: Q01DX001 (ip), vehicle: other); 98 % of control (dose: 2000.0 mg/kg/injection, schedule: Q01DX001 (ip), vehicle: other).
In the case of `NC(=O)c1ccc(NC(=O)CCC(=O)Nc2ccc(C(N)=O)cn2)nc1`, the T/C (dose: 0.36 mg/kg/injection, schedule: Q01DX Z (ip), vehicle: carboxymethylcellulose (CMC)) was 105 % of control; the T/C (dose: 0.55 mg/kg/injection, schedule: Q01DX Z (ip), vehicle: carboxymethylcellulose (CMC)) is 102 % of control; the T/C (dose: 0.83 mg/kg/injection, schedule: Q01DX Z (ip), vehicle: carboxymethylcellulose (CMC)) was 102 % of control; the T/C (dose: 1.0 mg/kg/injection, schedule: Q01DX Z (ip), vehicle: carboxymethylcellulose (CMC)) is 105 % of control; the T/C (dose: 1.25 mg/kg/injection, schedule: Q01DX Z (ip), vehicle: carboxymethylcellulose (CMC)) was 103 % of control and 114 % of control; the T/C (dose: 2.0 mg/kg/injection, schedule: Q01DX Z (ip), vehicle: carboxymethylcellulose (CMC)) was 107 % of control. For the same compound, the T/C was 110 % of control (dose: 2.5 mg/kg/injection, schedule: Q01DX Z (ip), vehicle: carboxymethylcellulose (CMC)); 95 % of control (dose: 3.0 mg/kg/injection, schedule: Q01DX Z (ip), vehicle: carboxymethylcellulose (CMC)); 104 % of control (dose: 4.0 mg/kg/injection, schedule: Q01DX Z (ip), vehicle: carboxymethylcellulose (CMC)); 124 % of control and 91 % of control (dose: 5.0 mg/kg/injection, schedule: Q01DX Z (ip), vehicle: carboxymethylcellulose (CMC)); 118 % of control (dose: 10.0 mg/kg/injection, schedule: Q01DX Z (ip), vehicle: carboxymethylcellulose (CMC)).
Regarding `CC1CCCCN1Cc1ccccc1COC(=O)c1ccc([N+](=O)[O-])cc1` (stereo not drawn), the T/C was 90 % of control (dose: 100.0 mg/kg/injection, schedule: Q04DX002 (ip), vehicle: Klucel (hydroxypropylcellulose) (HPC)); 104 % of control (dose: 200.0 mg/kg/injection, schedule: Q04DX002 (ip), vehicle: Klucel (hydroxypropylcellulose) (HPC)); 114 % of control (dose: 400.0 mg/kg/injection, schedule: Q04DX002 (ip), vehicle: Klucel (hydroxypropylcellulose) (HPC)).
Regarding `Cc1ccc2c(c1)=N/C(=N\c1nc(O)c(O)[nH]1)N=2`, the T/C by setting is: under setting [6], 97 % of control; under setting [7], 108 % of control; under setting [8], 103 % of control.
As to `COC1OCC(OS(C)(=O)=O)C(OS(C)(=O)=O)C1OS(C)(=O)=O` (stereo not drawn), the T/C is, setting by setting: under setting [6], 97 % of control and 96 % of control; under setting [7], 97 % of control and 98 % of control; under setting [8], 100 % of control and 98 % of control.

The record behind these values is PubChem BioAssay AID248 (DTP/NCI, 2004).
